The subject of one data set is TK-10. As to the kind of experiment: NCI 60 cell line single dose screen. The following applies: TK-10 (Renal Cancer), 10 micromolar, 48 h. The format is cell-based, human. An excerpt:
(§1) Analog 10 was screened utilizing 60 different human tumor cell lines, representing leukemia, melanoma and cancers of the lung, colon, brain, ovary, breast, prostate, and kidney in order to show selective growth inhibition or cell killing of particular tumor cell lines. This screen is unique in that the complexity of a 60 cell line dose response produced by a given compound results in a biological response pattern which can be utilized in pattern recognition algorithms (COMPARE program. See: http://dtp.nci.nih.gov/docs/compare/compare.html). Using these algorithms, it is possible to assign a putative mechanism of action to a test compound, or to determine that the response pattern is unique and not similar to that of any of the standard prototype compounds included in the NCI database. In addition, following characterization of various cellular molecular targets in the 60 cell lines, it may be possible to select compounds most likely to interact with a specific molecular target.
(§2) The screening is a two-stage process, beginning with the evaluation of the compound against the 60 cell lines at a single dose of 10 uM.
(§3) The human tumor cell lines of the cancer screening panel are grown in RPMI 1640 medium containing 5% fetal bovine serum and 2 mM L-glutamine. For a typical screening experiment, cells are inoculated into 96 well microtiter plates in 100 μL at plating densities ranging from 5,000 to 40,000 cells/well depending on the doubling time of individual cell lines. After cell inoculation, the microtiter plates are incubated at 37° C., 5% CO2, 95% air and 100% relative humidity for 24 h prior to addition of experimental drug.
(§4) After 24 h, two plates of each cell line are fixed in situ with TCA, to represent a measurement of the cell population for each cell line at the time of drug addition (Tz). Experimental drugs are solubilized in dimethyl sulfoxide at 400-fold the desired final maximum test concentration and stored frozen prior to use. At the time of drug addition, an aliquot of frozen concentrate is thawed and diluted to twice the desired final maximum test concentration with complete medium containing 50 μg/ml gentamicin.
(§5) Following drug addition, the plates are incubated for an additional 48 h at 37° C., 5% CO2, 95% air, and 100% relative humidity. For adherent cells, the assay is terminated by the addition of cold TCA. Cells are fixed in situ by the gentle addition of […] of cold 50% (w/v) TCA (final concentration, 10% TCA) and incubated for 60 minutes at 4° C. The supernatant is discarded, and the plates are washed five times with tap water and air dried. Sulforhodamine B (SRB) solution (100 μl) at 0.4% (w/v) in 1% acetic acid is added to each well, and plates are incubated for 10 minutes at room temperature. After staining, unbound dye is removed by washing five times with 1% acetic acid and the plates are air dried. Bound stain is subsequently solubilized with 10 mM trizma base, and the absorbance is read on an automated plate reader at a wavelength of 515 nm. For suspension cells, the methodology is the same except that the assay is terminated by fixing settled cells at the bottom of the wells by gently adding 50 μl of 80% TCA (final concentration, 16% TCA). Using the absorbance measurements [time zero, (Tz), control growth, (C), and test growth in the presence of drug (Ti)], the percentage growth is calculated.

In the next data set the test system is KM12. Briefly: NCI 60 cell line single dose screen. The format is cell-based, human. The following applies: KM12 (Colon Cancer), 10 micromolar, 48 h.
Excerpt: as §1, §2, §3, §4, §5

The test system of the next data set is NCI/ADR-RES. As to the kind of experiment: NCI 60 cell line single dose screen. The following applies: NCI/ADR-RES (Ovarian Cancer), 10 micromolar, 48 h. The format is cell-based, human.
Excerpt: as §1, §2, §3, §4, §5

Another data set deals with SF-295. Briefly: NCI 60 cell line single dose screen. Type of data set: cell-based, human. Particulars: SF-295 (CNS Cancer), 10 micromolar, 48 h.
Excerpt: as §1, §2, §3, §4, §5

The next data set concerns SK-OV-3. Briefly: NCI 60 cell line single dose screen. The format is cell-based, human. Particulars: SK-OV-3 (Ovarian Cancer), 10 micromolar, 48 h.
Excerpt: as §1, §2, §3, §4, §5

Another data set has as its system UACC-257. Briefly: NCI 60 cell line single dose screen. Type of data set: cell-based, human. The following applies: UACC-257 (Melanoma), 10 micromolar, 48 h.
Excerpt: as §1, §2, §3, §4, §5

Another data set concerns HOP-62. Briefly: NCI 60 cell line single dose screen. Particulars: HOP-62 (Non-Small Cell Lung Cancer), 10 micromolar, 48 h. Type of data set: cell-based, human.
Excerpt: as §1, §2, §3, §4, §5

The next data set relates to MCF7. Briefly: NCI 60 cell line single dose screen. Type of data set: cell-based, human. The following applies: MCF7 (Breast Cancer), 10 micromolar, 48 h.
Excerpt: as §1, §2, §3, §4, §5

In a further data set the test system is NCI-H522. Briefly: NCI 60 cell line single dose screen. The format is cell-based, human. The following applies: NCI-H522 (Non-Small Cell Lung Cancer), 10 micromolar, 48 h.
Excerpt: as §1, §2, §3, §4, §5

The test system of another data set is BT-549. Briefly: NCI 60 cell line single dose screen. Type of data set: cell-based, human. The following applies: BT-549 (Breast Cancer), 10 micromolar, 48 h.
Excerpt: as §1, §2, §3, §4, §5

Another data set deals with EKVX. Briefly: NCI 60 cell line single dose screen. Type of data set: cell-based, human. The following applies: EKVX (Non-Small Cell Lung Cancer), 10 micromolar, 48 h.
Excerpt: as §1, §2, §3, §4, §5

Another data set relates to SR. As to the kind of experiment: NCI 60 cell line single dose screen. Type of data set: cell-based, human. Particulars: SR (Leukemia), 10 micromolar, 48 h.
Excerpt: as §1, §2, §3, §4, §5

The subject of another data set is HCC-2998. As to the kind of experiment: NCI 60 cell line single dose screen. The format is cell-based, human. Particulars: HCC-2998 (Colon Cancer), 10 micromolar, 48 h.
Excerpt: as §1, §2, §3, §4, §5

A short description of data set [1]: Single dose i.p. toxicity in mice. Type of data set: in vivo. The following applies: daily weight and behavior. The method, then: (§6) Initially, we established that 10 had no observed toxicity in mice up to 50 mg/kg a single dose administered i.p. Toxicity was assessed by daily weight measurements and mouse behavior compared to non-injected mice. Next, we established tumor xenografts by injecting A549 cells subcutaneously into two groups of nude athymic mice (6 animals per group). The first group was injected only with DMSO control. The second group of animals received three i.p. doses of analog 10 (20 mg/kg) on the 3rd, 5th and 7th day after the initial tumor challenge. Tumor growth was monitored over a period of five weeks. The tumor grew rapidly in the control mice population and reached an average size of 731 mm^3 at the end of 4 weeks. […] The average tumor size for this population was 308 mm^3 after 4 weeks.

A further data set has as its system A549 tumor xenografts. As to the kind of experiment: A549 tumor xenograft growth in nude athymic mice. The following applies: 20 mg/kg i.p. on 3rd, 5th and 7th day. The format is in vivo. The method, then: as §6
A population of 22 nude athymic mice was injected subcutaneously with A549 cells (10^7 cells in 100 μl PBS each). A subpopulation of 12 mice was injected with analog 10 in 1% DMSO at 20 mg/kg on the 3rd, 5th and 7th day following treatment with A549 cells. A control population of 10 mice was injected with 1% DMSO. Tumor growth was measured over 5 weeks.

The subject of the next data set is HL-60(TB). As to the kind of experiment: NCI 60 cell line single dose screen. Type of data set: cell-based, human. The following applies: HL-60(TB) (Leukemia), 10 micromolar, 48 h.

Take `COCCC(=O)NC[C@H](O)[C@H](C)C(=O)NCCC[C@H]1O[C@@]2(CCC[C@@H](CC[C@H](C)/C=C(\C)[C@H](C)O)O2)CCC1C` (stereo partly drawn) [Analog 10]: the “Growth Percent” value in the data set with TK-10 is 30.01%; in the data set on KM12, 73.09%; with NCI/ADR-RES, 88.16%; with SF-295, 13.26%; in the data set on SK-OV-3, 59.10%; in the data set on UACC-257, 72.55%. Also, the “Growth Percent” value in the data set on HOP-62 worked out at 40.92%; with MCF7, 62.27%; in the data set on NCI-H522 it was 32.60%; in the data set with BT-549, 29.35%; in the data set with EKVX, 29.10%; with SR, 40.40%. Also, the “Growth Percent” value in the data set with HCC-2998 worked out at 66.34%; in the data set with HL-60(TB), 51.51%. The “dose with no observed toxicity” value in data set [1] is on record as “up to 50 mg/kg”. Further, in the data set on A549 tumor xenografts, the drug-based cytotoxicity result is recorded as “no significant drug-based cytotoxicity was observed”. Besides, the tumor growth result in the data set with A549 tumor xenografts is listed as “substantially inhibited”. Further, in the data set on A549 tumor xenografts (after 4 weeks), the average tumor size worked out at 308 mm^3.

These data come from patent publication US8350062B2, “Synthesis and anticancer activity of new actin-targeting small-molecule agents” (priority 2009, dated 2013).
